Assay results reported in PubChem BioAssay (NCI).
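Following 48 hours of exposure in 96-well plates, responses at five concentrations were used to interpolate endpoints linearly. TGI denotes the concentration required for complete inhibition of growth.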 Where a SMILES comes first, the peptide text is derived from it. The star is where a group is joined. Boc = CC(C)(C)OC(=O)*

Assays:
Test in all cases: NCI anticancer screen, dose series, 48 h
[1] = test system: IGROV1 ovarian
[2] = test system: HS 578T breast
[3] = test system: 786-0 renal
[4] = test system: HCC-2998 colon
[5] = test system: SW-620 colon
[6] = test system: MCF7 breast
[7] = test system: BT-549 breast
[8] = test system: SR leukemia
[9] = test system: KM12 colon
[10] = test system: TK-10 renal
[11] = test system: NCI-H460 lung
[12] = test system: SN12C renal
[13] = test system: NCI-H226 lung
[14] = test system: NCI-H522 lung
[15] = test system: SF-268 CNS
[16] = test system: HOP-92 NSCLC
[17] = test system: SK-MEL-2 melanoma
[18] = test system: OVCAR-5 ovarian
[19] = test system: NCI/ADR-RES ovarian

Row | SMILES | TGI [1] [µM] | TGI [2] [µM] | TGI [3] [µM] | TGI [4] [µM] | TGI [5] [µM] | TGI [6] [µM] | TGI [7] [µM] | TGI [8] [µM] | TGI [9] [µM] | TGI [10] [µM] | TGI [11] [µM] | TGI [12] [µM] | TGI [13] [µM] | TGI [14] [µM] | TGI [15] [µM] | TGI [16] [µM] | TGI [17] [µM] | TGI [18] [µM] | TGI [19] [µM]
1 | CC1=NC(=Cc2cccc(Cl)c2)C(=O)N1n1c(-c2ccccc2)nc2ccccc2c1=O | > 100 | > 100 | > 100 | 54.5 | > 100 | 55.3 | > 100 | 63.5 | > 100 | > 100 | 46.5 | > 100 | > 100 | 67.7 | > 100 |  |  |  | 
2 | COc1cccc(OC)c1C(=O)OCc1ccccc1 | > 100 |  | > 100 |  | > 100 |  |  | > 100 | > 100 | > 100 | > 100 | > 100 | > 100 | > 100 | > 100 | > 100 | > 100 |  | 
3 | CCn1c2ccccc2c2ccc3c(c21)C(=O)C=CC3=O | 14.8 |  | 3.3 | 38.5 |  |  |  |  | 27.4 | 30 | 45.5 | 33.5 | 32.8 | 4.52 | 40 | 30.3 | 44 | 44.1 | 
4 | COc1cc2c(c(OC)c1)/C(=C/Sc1ccccc1)C(=O)N(C(C)(C)C)C2 | 82.8 |  | > 100 | > 100 | > 100 | 96.3 | 83 | 66.7 | 66.1 | > 100 |  | 69 | > 100 |  | 39 | 38.8 | 42.5 | > 100 | 56.7
5 | CN(C)c1ccc(NN=C2SC(=Nc3ccccc3)C(=Nc3ccccc3)S2)cc1 | > 100 | > 100 | > 100 | > 100 | > 100 |  |  |  | > 100 | > 100 | > 100 | > 100 | > 100 | > 100 | > 100 | > 100 | > 100 | > 100 | > 100
6 | CCCCCCCOc1ccc(/C=C\c2cc[n+](CCCCCCCC[n+]3ccc(/C=C\c4ccc(OCCCCCCC)cc4)cc3)cc2)cc1 | 33.3 |  | 32 |  |  |  |  |  | 28.2 | 43.7 | 17 | 57 |  | 10.7 | 44.6 | > 100 | 74.3 | 46.5 | 
7 | NC(N)=NCCCC(NC(=O)c1cccc2c(=O)c3ccccc3[nH]c12)C(=O)O (stereo unspecified) | > 100 | > 100 | > 100 |  | > 100 | > 100 |  | > 100 | > 100 | > 100 |  | > 100 | > 100 | > 100 | > 100 | > 100 | > 100 | > 100 | > 100
8 | CCOC(=O)C1C(c2ccc3c(c2)OCO3)c2c([nH][nH]c2=O)CC1(C)O (stereo unspecified) | > 100 | > 100 | > 100 | > 100 | > 100 | > 100 |  | > 100 | > 100 | > 100 | > 100 | > 100 |  | > 100 | > 100 | > 100 | > 100 | > 100 | > 100
9 | CC(=O)c1ccc2c(c1)CC1(C2)Cc2cc3c(cc2C1=O)CCC3 (stereo unspecified) | 59 | 89.5 | 63.1 | 68.4 | > 100 | 43.8 |  | 16.7 | 32.4 | 71.3 | 76.3 | 57.3 |  | 83.6 | 88 | 65.5 | 46.2 | 83 | 39.4
10 | COc1cccc(NC(=O)CSc2nnc(-c3ccc(NC(C)=O)cc3)o2)c1 | > 100 |  | > 100 |  | > 100 |  |  | > 100 | > 100 | > 100 | > 100 | > 100 | > 100 | > 100 | > 100 | > 100 | > 100 | > 100 | 
11 | C=CC[C@@H](N)C(=O)N(C)[C@@H](C)[C@@H](O)c1ccccc1 | > 100 | > 100 | > 100 |  | > 100 |  | > 100 |  | > 100 | > 100 | > 100 |  | > 100 | 44.2 | > 100 | > 100 | > 100 |  | > 100
12 | CC(C)(C)OC(=O)NC(Cc1ccc(O)cc1)C(=O)N1CCCC1C(=O)O (stereo not drawn) (Boc-Tyr-Pro-OH; configuration not given here) | > 100 |  | > 100 | > 100 | > 100 |  |  | > 100 | > 100 | > 100 | > 100 | > 100 | > 100 | > 100 | > 100 | > 100 | > 100 | > 100 | 
13 | CCN1CCC(C)OP1(=O)Cc1ccccc1 (stereo unspecified) | > 100 |  | > 100 | > 100 | > 100 | > 100 | > 100 | > 100 | > 100 | > 100 | > 100 |  | > 100 |  | > 100 |  | > 100 | > 100 | > 100
14 | C/C=C1\CN2CCc3c([nH]c4ccccc34)C2CC1C(=O)OC (stereo unspecified) | > 322 |  | > 322 | > 322 | > 322 |  |  | > 322 | > 322 | > 322 | > 322 | > 322 | > 322 | > 322 | > 322 | > 322 | > 322 | > 322 | 
15 | CC(=O)NC(CCCNC(=O)N(CCCl)N=O)C(=O)NCc1ccccc1 (stereo unspecified) | > 100 |  | > 100 | > 100 | > 100 |  |  | > 100 | > 100 | > 100 | > 100 | > 100 | > 100 | > 100 | > 100 | > 100 | > 100 |  | 
